Inhibition data for 31 compounds are collected here from patent publication US9150569B2, “Nitrogen-containing heterocyclic compound having inhibitory effect on production of kynurenine” (KYOWA HAKKO KIRIN CO., LTD., priority 2010, dated 2015).

This experiment has as its system production of kynurenine in KATO-III cells. The experiment is described as follows: Inhibitory activity on the production of kynurenine (IFN-γ-treated KATO-III cells, kynurenine in the culture medium quantified by absorbance at 480 nm). The class given is cell-based. To be noted: test compound at 10 μmol/L, human gastric cancer cell line KATO-III, 96 hours, read-out: inhibition rate (production of kynurenine). How it is done:
This assay was performed by a modification of the method described in J. Biol. Chem., vol. 263, pp. 2041-2048 (1988). For culture of the human gastric cancer cell line KATO-III, RPMI 1640 (GIBCO, 11875) supplemented with 10 volt FBS (GIBCO, 10091-148, lot. 665285) was used. One μL of a test substance in a DMSO solution was diluted with 199 μL of the culture medium and placed in wells of a 384-well plate (10 μL/well). Next, IFN-γ (Sigma, 1-3265) was added to the culture medium to a concentration of 31.25 ng/mL, and KATO-III cells were suspended at 50,000 cells/mL in the culture medium. Forty μL of the suspension was added to each well (2,000 cells/well) and incubated under a 5% CO2 atmosphere at 37° C. for 96 hours. The final concentration of DMSO was limited to 0.1 volt or less so that DMSO itself may not affect the kynurenine concentration measured by this assay. After the incubation, 10 μL of a 30 w/vt aqueous trichloroacetic acid solution was added to each well, and incubation was performed at 65° C. for 30 minutes. The plate was centrifuged at 2,500×g for 5 minutes and 15μL of the supernatant in each well was transferred into another 384-well plate. To the transferred supernatant, 15 μL of a 2 w/vt solution of p-dimethylaminobenzaldehyde in acetic acid was added, incubation was performed at 65° C. for 20 minutes and the absorbance was measured at 480 nm.
Sample: the absorbance value of the well to which a DMSO solution containing a test substance was added and in which the cells were treated with IFN-γ.
Blank: the absorbance value of the well to which DMSO not containing a test substance was added and in which the cells were treated with IFN-γ.
Control: the absorbance value of the well to which DMSO not containing a test substance was added and in which the cells were not treated with IFN-γ.
In this assay, expression of IDO in KATO-III cells is induced by IFN-γ treatment and kynurenine in the culture medium is quantified. The kynurenine concentration in a culture medium is known to increase in proportion to the enzymatic activity of intracellular IDO (for example, J. Biol. Chem., vol. 263, pp. 2041-2048 ([…])). […] The production of kynurenine is known to be inhibited by IDO inhibitors (for example, J. Clin. Invest., vol. 117, No. 5, pp. 1147-1154 […]), and thus it is speculated that Compounds (I) also have an inhibitory effect on IDO.
A word on the inhibition: it is the percentage by which the read-out fell short of the control. Consider `CCCS(=O)(=O)Nc1nc2ccccc2nc1OC(c1cccnc1)C(C)(C)C` (stereo not shown) [Compound 3, N-(3-(2,2-dimethyl-1-(pyridin-3-yl)propoxy)quinoxalin-2-yl) propane-1-sulfonamide], for which the inhibition at 10 µM is ≥ 80%.
The result for `CCCS(=O)(=O)Nc1nc2ccccc2nc1OC(c1ccc[n+]([O-])c1)C(C)(C)C` (stereo not shown) [Compound 4, 3-(2,2-dimethyl-1-(3-(propylsulfonamido)quinoxalin-2-yloxy)propyl)pyridine 1-oxide] reads ≥ 80%; that for `CCCS(=O)(=O)Nc1nc2ccccc2nc1OC(c1ccc[n+]([O-])c1)C1CC1` (stereo not shown) [Compound 6, 3-(cyclopropyl(3-(propylsulfonamido)quinoxalin-2-yloxy)methyl)pyridine 1-oxide], ≥ 80%.
The result for `CCCS(=O)(=O)Nc1nc2ccccc2nc1OC(c1cccnc1)C(C)(C)F` (stereo not shown) [Compound 7, N-(3-(2-fluoro-2-methyl-1-(pyridin-3-yl)propoxy)quinoxalin-2-yl)propane-1-sulfonamide] reads ≥ 80%; that for `CCCS(=O)(=O)Nc1nc2ccccc2nc1OC(c1ccc[n+]([O-])c1)C(C)(C)F` (stereo not shown) [Compound 8, 3-(2-fluoro-2-methyl-1-(3-(propylsulfonamido)quinoxalin-2-yloxy)propyl)pyridine 1-oxide], ≥ 80%.
Take `CCCCC(Oc1nc2ccccc2nc1NS(=O)(=O)CCC)c1cccnc1` (stereo not shown) [Compound 11, N-(3-(1-(pyridin-3-yl)pentyloxy)quinoxalin-2-yl)propane-1-sulfonamide]: the inhibition at 10 µM was ≥ 80%.
The result for `CCCCC(Oc1nc2ccccc2nc1NS(=O)(=O)CCC)c1ccc[n+]([O-])c1` (stereo not shown) [Compound 12, 3-(1-(3-(propylsulfonamido)quinoxalin-2-yloxy)pentyl)pyridine 1-oxide] reads ≥ 80%; that for `CCCS(=O)(=O)Nc1nc2ccccc2nc1OC(c1cccnc1)C1(C)CC1` (stereo not shown) [Compound 13, N-(3-((1-methylcyclopropyl)(pyridin-3-yl)methoxy)quinoxalin-2-yl)propane-1-sulfonamide], ≥ 80%; that for `CCCS(=O)(=O)Nc1nc2ccccc2nc1OC(c1ccc[n+]([O-])c1)C1(C)CC1` (stereo not shown) [Compound 14, 3-((1-methylcyclopropyl)(3-(propylsulfonamido)quinoxalin-2-yloxy)methyl)pyridine 1-oxide], ≥ 80%.
Consider `CCCS(=O)(=O)Nc1nc2ccccc2nc1OC(CC)c1cccnc1` (stereo not shown) [Compound 15, N-(3-(1-(pyridin-3-yl)propoxy)quinoxalin-2-yl)propane-1-sulfonamide], for which the inhibition at 10 µM was ≥ 80%.
As to `CCCS(=O)(=O)Nc1nc2ccccc2nc1OC(CC)c1ccc[n+]([O-])c1` (stereo not shown) [Compound 16, 3-(1-(3-(propylsulfonamido)quinoxalin-2-yloxy)propyl)pyridine 1-oxide], the inhibition at 10 µM is ≥ 80%.
The result for `CCCS(=O)(=O)Nc1nc2ccccc2nc1OC(c1cccnc1)C(F)F` (stereo not shown) [Compound 17, N-(3-(2,2-difluoro-1-(pyridin-3-yl)ethoxy)quinoxalin-2-yl) propane-1-sulfonamide] reads ≥ 80%; that for `CCCS(=O)(=O)Nc1nc2ccccc2nc1OC(C)c1cccnc1` (stereo not shown) [Compound 19, N-(3-(1-(pyridin-3-yl)ethoxy)quinoxalin-2-yl)propane-1-sulfonamide], ≥ 80%.
With `CCCC(Oc1nc2ccccc2nc1NS(=O)(=O)CCC)c1cccnc1` (stereo not shown) [Compound 21, N-(3-(1-(pyridin-3-yl)butoxy)quinoxalin-2-yl)propane-1-sulfonamide] the figure was ≥ 80%.
Regarding `CCCC(Oc1nc2ccccc2nc1NS(=O)(=O)CCC)c1ccc[n+]([O-])c1` (stereo not shown) [Compound 22, 3-(1-(3-(propylsulfonamido)quinoxalin-2-yloxy)butyl)pyridine 1-oxide], the inhibition at 10 µM is ≥ 80%.
For the compound `CCCS(=O)(=O)Nc1nc2ccccc2nc1OC(c1ccccc1)c1cccnc1` (stereo not shown) [Compound 23, N-(3-(phenyl(pyridin-3-yl)methoxy)quinoxalin-2-yl)propane-1-sulfonamide], the inhibition at 10 µM was ≥ 80%.
With `CCCS(=O)(=O)Nc1nc2ccccc2nc1OC(c1ccccc1)c1ccc[n+]([O-])c1` (stereo not shown) [Compound 24, 3-(phenyl(3-(propylsulfonamido)quinoxalin-2-yloxy)methyl)pyridine 1-oxide] the figure was ≥ 80%; with `CCCS(=O)(=O)Nc1nc2ccccc2nc1OC(c1ccc(S(C)(=O)=O)cc1)C(F)(F)F` (stereo not shown) [Compound 25, N-(3-(2,2,2-trifluoro-1-(4-(methylsulfonyl)phenyl)ethoxy)quinoxalin-2-yl)propane-1-sulfonamide], ≥ 80%; with `CCCS(=O)(=O)Nc1nc2ccccc2nc1OC(c1ccc(C#N)nc1)C(F)(F)F` (stereo not shown) [Compound 26, N-(3-(1-(6-cyanopyridin-3-yl)-2,2,2-trifluoroethoxy)quinoxalin-2-yl)propane-1-sulfonamide], ≥ 80%.
The result for `CCCS(=O)(=O)Nc1nc2ccccc2nc1OC(c1ccc2nccn2c1)C(F)(F)F` (stereo not shown) [Compound 27, N-(3-(2,2,2-trifluoro-1-(imidazo[1,2-a]pyridin-6-yl)ethoxy)quinoxalin-2-yl)propane-1-sulfonamide] reads ≥ 80%; that for `CCCCS(=O)(=O)Nc1nc2ccccc2nc1OC(c1ccc2nccn2c1)C(F)(F)F` (stereo not shown) [Compound 28, N-(3-(2,2,2-trifluoro-1-(imidazo[1,2-a]pyridin-6-yl)ethoxy)quinoxalin-2-yl)butane-1-sulfonamide], ≥ 80%.
The result for `CC(C)CS(=O)(=O)Nc1nc2ccccc2nc1OC(c1ccc2nccn2c1)C(F)(F)F` (stereo not shown) [Compound 29, 2-methyl-N-(3-(2,2,2-trifluoro-1-(imidazo[1,2-a]pyridin-6-yl)ethoxy)quinoxalin-2-yl)propane-1-sulfonamide] reads ≥ 80%; that for `O=S(=O)(CC1CC1)Nc1nc2ccccc2nc1OC(c1ccc2nccn2c1)C(F)(F)F` (stereo not shown) [Compound 30, 1-cyclopropyl-N-(3-(2,2,2-trifluoro-1-(imidazo[1,2-a]pyridin-6-yl)ethoxy)quinoxalin-2-yl)methanesulfonamide], ≥ 80%.
Take `CCCS(=O)(=O)Nc1nc2ccccc2nc1OC(c1ccc(CO)nc1)C(F)(F)F` (stereo not shown) [Compound 31, N-(3-(2,2,2-trifluoro-1-(6-(hydroxymethyl)pyridin-3-yl)ethoxy)quinoxalin-2-yl)propane-1-sulfonamide]: the inhibition at 10 µM was ≥ 80%.
Regarding `CCCS(=O)(=O)Nc1nc2ccccc2nc1OC(c1ccc(-c2cnn(C)c2)nc1)C(F)(F)F` (stereo not shown) [Compound 32, N-(3-(2,2,2-trifluoro-1-(6-(1-methyl-1H-pyrazol-4-yl)pyridin-3-yl)ethoxy)quinoxalin-2-yl)propane-1-sulfonamide], the inhibition at 10 µM is ≥ 80%.
With `CCCCS(=O)(=O)Nc1nc2ccccc2nc1OC(c1ccc(-c2cnn(C)c2)nc1)C(F)(F)F` (stereo not shown) [Compound 33, N-(3-(2,2,2-trifluoro-1-(6-(1-methyl-1H-pyrazol-4-yl)pyridin-3-yl)ethoxy)quinoxalin-2-yl)butane-1-sulfonamide] the figure was ≥ 80%; with `CCCCS(=O)(=O)Nc1nc2ccccc2nc1OC(c1ccc(S(C)(=O)=O)nc1)C(F)(F)F` (stereo not shown) [Compound 40, N-(3-(2,2,2-trifluoro-1-(6-(methylsulfonyl)pyridin-3-yl)ethoxy)quinoxalin-2-yl)butane-1-sulfonamide], ≥ 80%.
The result for `CCCCS(=O)(=O)Nc1nc2ccccc2nc1OC(c1ccc([S+](C)[O-])nc1)C(F)(F)F` (stereo not shown) [Compound 41, N-(3-(2,2,2-trifluoro-1-(6-(methylsulfinyl)pyridin-3-yl)ethoxy)quinoxalin-2-yl)butane-1-sulfonamide] reads ≥ 80%; that for `CCCS(=O)(=O)Nc1nc2ccccc2nc1OC(c1ccncc1)C(F)(F)F` (stereo not shown) [Compound 42, N-(3-(2,2,2-trifluoro-1-(pyridin-4-yl)ethoxy)quinoxalin-2-yl)propane-1-sulfonamide], ≥ 80%; that for `CCCS(=O)(=O)Nc1nc2ccccc2nc1OC(c1cc[n+]([O-])cc1)C(F)(F)F` (stereo not shown) [Compound 43, 4-(2,2,2-trifluoro-1-(3-(propylsulfonamido)quinoxalin-2-yloxy)ethyl)pyridine 1-oxide], ≥ 80%.
With `CCCS(=O)(=O)Nc1nc2ccccc2nc1OC(c1ccnc(C#N)c1)C(F)(F)F` (stereo not shown) [Compound 44, N-(3-(1-(2-cyanopyridin-4-yl)-2,2,2-trifluoroethoxy)quinoxalin-2-yl)propane-1-sulfonamide] the figure was ≥ 80%.
